For 69 molecules, EC50, IC50 and outcome results are on record in PubChem BioAssay AID179 (DTP/NCI, 2004).

The source made the active and inactive calls.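 The calls were made as follows: active = compounds giving half or more protection of infected cells from virus-caused growth loss, again on retest; inactive = the rest.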 Where a SMILES comes first, the peptide text is derived from it. The star is where a group is joined. Cbz = O=C(OCc1ccccc1)*

The assay relates to CEM cells HIV-1 protection, formazan growth assay. The experiment in a line: NCI AIDS Antiviral Assay. The following applies: for IC50: measured here: growth of uninfected CEM cells. In a few lines:
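CEM (human) cells, HIV-1 infected vs uninfected, 5-point dosing, formazan growth read-out. Retest threshold 50% protection.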

Turning to `CC(C)(C)c1ccc(O)c(C(O)c2ccccn2)c1` (stereo not given), the EC50 is over 200 µM and the concentration for half-maximal inhibition (IC50) was 81.3 µM.
In the same order, the values of `CC(=O)Nc1ccc(C(=O)CCC(NC(C)=O)C(=O)O)cc1` (stereo not given) are over 200 µM and over 200 µM.
Consider `COC(=O)CN1C(=O)C2(C(=O)OC)OC1(c1ccc([N+](=O)[O-])cc1)C1C(=O)N(c3ccccc3)C(=O)C12` (stereo not given), for which the EC50 was over 200 µM and the IC50 is over 200 µM.
`COC(=O)C1=CC(=O)OC1(OO)c1ccc(Br)cc1` (stereo not given): the EC50 was over 200 µM and the IC50 was found to be 38.9 µM.
For `CCn1c(SCC(=O)N/N=C/c2ccccc2)nc2ccccc2c1=O` the same measures were over 200 µM and 23.4 µM.
Take `COc1ccc(C2C3=C(COC3=O)Oc3cc4c(cc32)OCO4)c(OC)c1` (stereo not given): the EC50 was over 200 µM and the half-inhibitory concentration (IC50) was 12.3 µM.
On to `CCOC(=O)CCC(NC(=O)C(CC(=O)OC)NC(=O)OCc1ccccc1)C(=O)NC(CC(=O)OC)C(=O)NC(CCC(=O)OCC)C(=O)NC(CC(=O)OC)C(=O)NC(CCC(=O)OCC)C(=O)NC(CC(=O)OCC)C(=O)OCC` (stereo not given) (Cbz-D(OMe)E(OEt)D(OMe)E(OEt)D(OMe)E(OEt)D(OEt)-OEt; configuration not given here), for which the EC50 was over 200 µM and the concentration for half-maximal inhibition (IC50) is over 200 µM.
Turning to `S=C1NC(c2ccc(Cl)cc2)N2C(=S)NC(c3ccc(Cl)cc3)N12` (stereo not given), the result was inactive.
For the molecule `Clc1ccc(SSc2ccccc2)cc1`, the result was inactive.
Regarding `NC1=NC(=O)[C@H](Cc2c[nH]c3ccccc23)N1C(=O)OCc1ccccc1`, the EC50 is over 200 µM and the IC50 was found to be 120 µM.
Take `CCc1noc(N)c1C#N`: the EC50 was over 200 µM and the IC50 amounted to 182 µM.
On to `O=c1ccc2ccc3occc(=O)c3c2o1`, for which the EC50 is over 120 µM and the IC50 came out at 102 µM.
Turning to `CCN1C(=O)CCCCC(=O)Nc2ccccc2-c2ccccc21`, the outcome was inactive.
As to `O=C1CCC2CN3CCc4c([nH]c5ccccc45)C3CC2C1` (stereo not given), the EC50 is over 45.7 µM.
Take `CCCC(O)c1cn(-c2cccc(S(=O)(=O)O)c2)nn1` (stereo not given): the EC50 is over 832 µM and the 50% inhibitory concentration (IC50) was over 832 µM.
Take `N/N=C1/C(=N/O)CCc2nonc21`: the EC50 is over 200 µM and the IC50 is over 200 µM.
With `O=C(C1=CCC2(CC1)OCCO2)N(Cc1ccccc1)c1ccccc1I`, the EC50 was over 200 µM and the IC50 was 32.4 µM.
As to `COc1ccc(/C=N/N=C(\N)NO)c(O)c1`, the EC50 is over 200 µM and the 50% inhibitory concentration (IC50) was found to be 10.5 µM.
In the case of `O=C1CSC(/C=C/c2ccccc2)N1c1ccc(-c2ccc(-n3c(-c4ccccc4)nc4ccccc4c3=O)cc2)cc1` (stereo not given), the EC50 was over 200 µM and the concentration for half-maximal inhibition (IC50) was found to be 28.2 µM.
Take `CC12CCC3C(CCC4=CC(=O)C=CC43C)C1CC(O)C(=O)O2` (stereo not given): the EC50 is over 200 µM and the half-inhibitory concentration (IC50) was over 200 µM.
As to `CCN(CC)C(=O)CCNC(C)Cc1c[nH]c2ccccc12` (stereo not given), the EC50 was over 200 µM and the IC50 is over 200 µM.
As to `O=C(/C=C/c1ccccc1Br)c1ccccc1`, the EC50 was over 200 µM and the half-inhibitory concentration (IC50) worked out at 3.16 µM.
Regarding `C[N+]1=C(c2ccc[n+](C)c2/C=N/O)OCC1(C)C`, the EC50 is over 501 µM and the IC50 is over 501 µM.
For `O=C(CCc1nnc2s/c(=C\c3ccccc3[N+](=O)[O-])c(=O)n12)Nc1cc(Cl)c(Cl)cc1Cl`, the EC50 is over 2 µM and the half-maximal inhibitory concentration (IC50) was over 2 µM.
On to `COc1cc2c(OC)c(-c3c(C)cc4c(C(C)C)c(OC)c(OC)cc4c3OC)c(C)cc2c(C(C)C)c1OC`, for which the outcome was inactive.
Turning to `Cc1ccc(C(=O)CC(O)(C(F)(F)F)C(F)(F)F)cc1[N+](=O)[O-]`, the EC50 was over 200 µM and the IC50 came to 6.61 µM.
As to `Cn1cnc([N+](=O)[O-])c1SC1=NCCS1`, the EC50 is over 1020 µM and the IC50 is 7.08 µM.
For `CNC1C(OC2C(OC3C(O)C(O)C(N=C(N)N)C(O)C3N=C(N)N)OC(C)C2(O)/C=N/NC(N)=S)OC(CO)C(O)C1O` (stereo not given), the result was inactive.
Consider `O=c1c2ccccc2c2c3c1cccc3c1cccc3c(=O)c4ccccc4c2c31`, for which the EC50 is over 7.08 µM and the IC50 is over 7.08 µM.
Turning to `O=C(c1ccc(Cl)cc1Cl)C1[C@H]2C(=O)N(c3ccc(Cc4ccc(N5C(=O)[C@@H]6ON(c7ccccc7)C(C(=O)c7ccc(Cl)cc7Cl)[C@@H]6C5=O)cc4)cc3)C(=O)[C@H]2ON1c1ccccc1` (stereo not given in full), the EC50 is over 38 µM and the IC50 is over 38 µM.
Regarding `COc1cc2ccc1NC(=O)N1CCN(CC1)C(=O)Nc1ccc(cc1OC)-c1ccc(c(OC)c1)NC(=O)N1CCN(CC1)C(=O)Nc1ccc-2cc1OC`, the EC50 was over 0.933 µM and the concentration for half-maximal inhibition (IC50) was over 0.933 µM.
As for `NC(=O)c1ccccc1NC(=O)C(=O)C(C(=O)c1ccc(Cl)c(Cl)c1)C1OC(=O)c2ccccc21` (stereo not given), the EC50 is over 339 µM and the 50% inhibitory concentration (IC50) is 21.4 µM.
As to `O=C(NC1CCC(CC2CCC(NC(=O)c3cc(O)c(O)c(O)c3)CC2)CC1)c1cc(O)c(O)c(O)c1` (stereo not given), the EC50 is over 100 µM and the half-maximal inhibitory concentration (IC50) was found to be 10.5 µM.
With `COC(=O)C(/C(=N/NC(N)=O)C(=O)Nc1c(C)cccc1C(C)(C)C)c1nc2ccc(Cl)cc2[nH]c1=O` (stereo not given), the result was inactive.
With `O=C(N/C(=C\c1cccc([N+](=O)[O-])c1)c1nc2c3c(ccc2[nH]1)C(=O)c1ccccc1C3=O)c1ccccc1`, the result was inactive.
`O=C(CN1CCCCC1)c1ccc2[nH]c(=O)oc2c1`: the EC50 was over 200 µM and the IC50 was 129 µM.
In the case of `OCCNCCNc1c2ccccc2nc2cc(Cl)ccc12`, the outcome was inactive.
With `Cc1occc1C(=S)Nc1ccc(Cl)c(/C=N/OC(C)(C)C)c1`, the EC50 is 0.195 µM and the half-maximal inhibitory concentration (IC50) amounted to 14.8 µM.
Regarding `CC(=O)Nc1c(I)c(NC(C)=O)c(I)c(C(=O)O)c1I`, the result was inactive.
Consider `CS(=O)(=O)Sc1ccc(Cl)cc1`, for which the EC50 is over 132 µM and the half-maximal inhibitory concentration (IC50) worked out at 9.33 µM.
Consider `CN(C)C(=O)ON=C1c2ccccc2-c2ccccc21`, for which the EC50 is over 200 µM and the IC50 is 28.8 µM.
For the molecule `CC1C(c2ccc(N(C)C)cc2)c2cc3c(cc2OC1N1CCCC1)OCO3` (stereo not given), the EC50 is over 100 µM and the half-inhibitory concentration (IC50) stood at 17 µM.
On to `CCCCCCCCCCCCCCCCCCNc1nc(=O)n(C2CC(O)C(COP(=O)(O)OCC3CCC(n4ccc(N)nc4=O)O3)O2)cc1F` (stereo not given), for which the EC50 was 1.51 µM and the IC50 amounted to 2.04 µM.
`O=C(c1ccc(Cl)cc1)c1ccc(OCCCCCCCCCCOc2ccc(C(=O)c3ccc(Cl)cc3)cc2)cc1`: the EC50 was over 16.6 µM and the IC50 is over 16.6 µM.
As to `CCCC1OC(=O)c2ccccc2S1` (stereo not given), the EC50 is over 200 µM and the IC50 was over 200 µM.
Take `O=C(CC1=Nc2nnc(-c3nnc4n3C(=O)C(CC(=O)C3CC3)=N4)n2C1=O)C1CC1`: the EC50 is over 24.5 µM and the IC50 is over 24.5 µM.
For `COc1ccc(-n2cnnc2-c2nsc3ccccc23)cc1`, the EC50 was over 85.1 µM and the IC50 is 55 µM.
For `CC(=O)c1ccc2c(c1)N(CCCN1CCN(CCO)CC1)c1ccccc1S2`, the EC50 is over 200 µM and the IC50 worked out at 10.2 µM.
Turning to `COc1ccccc1C1CC(c2ccccc2)=Nc2ccccc2S1` (stereo not given), the EC50 is over 42.7 µM and the IC50 was determined as 8.13 µM.
On to `COc1ccc(Br)c(C=Nc2cccc3cc(OC)c(OC)cc23)c1`, for which the result was inactive.
Turning to `Cc1c(NC(=S)NN)c(=O)n(-c2ccccc2)n1C`, the EC50 is over 200 µM and the IC50 is over 200 µM.
As for `S=C(Nc1ccc2c(c1)oc1ccccc12)c1cccs1`, the EC50 is over 200 µM and the IC50 is over 200 µM.
For `O=C1CCC23CC(C=CC=C12)n1c(=O)n(-c2ccccc2)c(=O)n13` (stereo not given), the EC50 is over 200 µM and the IC50 came to 34.7 µM.
For `Cc1ccc2cccc3c2c1CC1(C3=O)S(=O)(=O)OCCOS1(=O)=O` the same measures were over 200 µM and over 200 µM.
Consider `O=C(NNC(=S)NC1CCCCC1)C12CC3CC(CC(C3)C1)C2`, for which the EC50 was over 200 µM and the IC50 was over 200 µM.
As to `COC(C)(C)C1=CCC(C)CC1` (stereo not given), the EC50 is over 100 µM and the IC50 is over 100 µM.
As for `Cc1ccc(NC(=O)C(=O)CC(=O)c2c(C)n([O-])c3ccccc3[n+]2=O)cc1`, the EC50 was over 13.2 µM and the half-maximal inhibitory concentration (IC50) was over 13.2 µM.
For `CN1C2=C(CC3=C1CC(C)(C)CC3=O)C(=O)CC(C)(C)C2`, the EC50 is over 100 µM and the concentration for half-maximal inhibition (IC50) was over 100 µM.
Consider `Cc1ccc(S(=O)(=O)OI(O)CC(F)(F)F)cc1`, for which the EC50 is over 200 µM and the IC50 was over 200 µM.
For the molecule `CN(/N=C/c1cccc2cccnc12)c1c([N+](=O)[O-])cc([N+](=O)[O-])cc1[N+](=O)[O-]`, the outcome was inactive.
Regarding `C#CCN(N=O)C(=O)NC(CCCCNC(=O)OCc1ccccc1)C(=O)OCc1ccccc1` (stereo not given), the EC50 is over 10.7 µM and the IC50 is over 10.7 µM.
Regarding `Cc1cn(C2CC(O)C(CO[Si](C)(C)C(C)(C)C)OC2OC(C)C)c(=O)[nH]c1=O` (stereo not given), the EC50 is over 200 µM and the IC50 amounted to 37.2 µM.
As to `Cn1cc(NC(=O)c2cc(NC(=O)Nc3cc(C(=O)Nc4cc(C(=O)Nc5ccc6cc(S(=O)(=O)O)cc(S(=O)(=O)O)c6c5)n(C)c4)n(C)n3)nn2C)cc1C(=O)Nc1ccc2cc(S(=O)(=O)O)cc(S(=O)(=O)O)c2c1`, the half-maximal effective concentration (EC50) was 6.17 µM and the IC50 was over 100 µM.
Take `CS(=O)(=O)c1nc2nc[nH]c2c(=O)[nH]1`: the EC50 is over 200 µM and the IC50 is over 200 µM.
For `CCOC(=O)C1C(=O)C(=O)N2CCc3c([nH]c4ccccc34)C12` (stereo not given), the EC50 is over 263 µM and the 50% inhibitory concentration (IC50) is 166 µM.
Regarding `CCOC(=O)c1ccc(-n2[nH]nc(C(N)=O)c2=O)cc1`, the EC50 is over 200 µM and the concentration for half-maximal inhibition (IC50) was over 200 µM.
Take `COC(=O)/C1=C/C2CC(/C=C(/c3ccccc3)C(=O)O1)C2`: the result was inactive.
For `S=C(N/N=C(/c1ccccc1)c1ccccn1)Nc1ccc(Cl)cc1`, the EC50 is over 0.2 µM and the IC50 is 0.123 µM.
In the same order, the values of `c1ccc(SCCP(CCP(c2ccccc2)c2ccccc2)c2ccccc2)cc1` (stereo not given) are over 21.9 µM and 0.355 µM.
